According to patent publication US6075044A, “Heterocyclic derivatives as inhibitors of purine salvage phosphoribosyltransferases” (The Regents of the University of California, priority 1998, dated 2000):
Read-outs that look alike come from different tables or passages of the source.

Legend:
Type in all cases: biochemical
Human HGPRTase = target: T1, Human HGPRTase (Homo sapiens, UniProt P00492); test: Enzyme assay, [14C]-guanine to GMP conversion, human HGPRTase; settings: recombinant enzyme, 10% DMSO, 37° C., 5 min, pH 6.8, read-out: IC50 HH (Human HGPRTase)
T1 sequence (P00492 1-218): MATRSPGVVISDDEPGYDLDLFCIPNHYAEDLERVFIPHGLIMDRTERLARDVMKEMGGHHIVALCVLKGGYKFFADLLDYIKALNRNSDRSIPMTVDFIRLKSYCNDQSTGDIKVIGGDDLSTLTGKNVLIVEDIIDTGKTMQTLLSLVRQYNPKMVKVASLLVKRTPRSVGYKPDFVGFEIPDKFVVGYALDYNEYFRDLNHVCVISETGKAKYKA
Experimental: (§1) Protocol For Testing Compounds of Formula I Against Tritrichomonas foetus HGXPRTase, Giardia lamblia GPRTase and Human HGPRTase
(§2) The enzyme assay mixture, in a final volume of 20 μl, consisted of the following:
(§3) Bis-Tris-HCl, pH 6.8 0.3 M
(§4) 5-Phospho-1-ribosylpyrophosphate 0.1 mM
(§5) [^14 C]-guanine (46 mCi/mmole) 22 μM
(§6) Thus, all the assay mixtures contain 10% DMSO.
(§7) The recombinant enzyme, purified to homogeneity in the native form, was diluted in a buffer solution of 50 mM Bis-Tris-HCl, pH 6.8, 6 mM MgCl2, and 1 mM dithiothreitol to a final concentration of 34 μg enzyme protein per ml. Two and one half of the diluted enzyme solution was added to the 20 μl reaction mixture, and maintained at 37° C., to start the enzyme-catalyzed reaction. The reaction was allowed to proceed at 37° C. for exactly 5 min, and then stopped by adding 23 μl of 1 mM guanine and 1 mM GMP to the reaction mixture.
(§8) Twenty μl of the final mixture was spotted on a polyethyleneimine-cellulose thin layer plate and chromatographed with 5 mM ammonium acetate pH 5.0. The unreacted [^14 C]-guanine migrated at the forefront of the chromatography with an Rf value of 0.62, whereas the product [^14 C]-GMP remained at the origin due to the negative charge of the molecule at pH 5.0. The spots of guanine and GMP were cut out from the plate, and the radioactivity in each spot measured with a Beckman LS-3801 scintillation counter. The radioactivities associated with the GMP and diminished from the guanine sample were used to calculate the amount of substrate converted to product within a unit time period.
(§9) Protocol For Testing Compounds of Formula II Against Tritrichomonas foetus HGXPRTase Giardia lamblia GPRTase and Human HGPRTase
as §7, with “half μl” for “half”

GPRTase from G. lamblia = target: T2, GPRTase from G. lamblia (Giardia duodenalis, UniProt Q24973); test: Enzyme assay, [14C]-guanine to GMP conversion, G. lamblia GPRTase; settings: recombinant enzyme, 10% DMSO, 37° C., 5 min, pH 6.8, read-out: IC50 GLG (GPRTase from G. lamblia)
T2 sequence (Q24973 1-230): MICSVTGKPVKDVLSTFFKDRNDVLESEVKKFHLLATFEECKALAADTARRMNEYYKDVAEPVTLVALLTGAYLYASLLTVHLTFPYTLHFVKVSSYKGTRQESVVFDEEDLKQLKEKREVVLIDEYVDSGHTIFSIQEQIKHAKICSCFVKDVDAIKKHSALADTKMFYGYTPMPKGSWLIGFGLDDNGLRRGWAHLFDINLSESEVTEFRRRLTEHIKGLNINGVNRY
Experimental: as §1, §2, §3, §4, §5, §6, §7, §8, §9
as §7, with “half μl” for “half”

HGXPRTase from T. foetus = target: T3, HGXPRTase from T. foetus (Tritrichomonas foetus, UniProt P51900); test: Enzyme assay, [14C]-guanine to GMP conversion, T. foetus HGXPRTase; settings: read-out: IC50 TFH (HGXPRTase from T. foetus)
T3 construct: made in house; host or cells: Escherichia coli
T3 sequence (P51900 1-183): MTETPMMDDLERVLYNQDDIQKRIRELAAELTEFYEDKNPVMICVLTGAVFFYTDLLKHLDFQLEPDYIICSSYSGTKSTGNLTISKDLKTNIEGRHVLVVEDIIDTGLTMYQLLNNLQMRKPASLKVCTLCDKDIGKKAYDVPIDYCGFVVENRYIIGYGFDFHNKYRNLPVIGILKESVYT
Experimental: as §1, §2, §3, §4, §5, §6, §7, §8, §9
as §7, with “half μl” for “half”

[1] = Table 2, compounds of Formula I
[2] = Table 2, compounds of Formula I, recombinant enzyme, 10% DMSO, 37° C., 5 min, pH 6.8
[3] = Table 4, compounds of Formula II
[4] = Table 4, compounds of Formula II, recombinant enzyme, 10% DMSO, 37° C., 5 min, pH 6.8

| SMILES | IC50 (Human HGPRTase; [1]) | IC50 (GPRTase from G. lamblia; [1]) | IC50 (HGXPRTase from T. foetus; [2]) | IC50 (Human HGPRTase; [3]) | IC50 (GPRTase from G. lamblia; [3]) | IC50 (HGXPRTase from T. foetus; [4]) | IC50 (HGXPRTase from T. foetus) |
| --- | --- | --- | --- | --- | --- | --- | --- |
| O=C(COc1ccc([N+](=O)[O-])cc1)NN=C1C(=O)Nc2ccccc21 [(I)8] | > 1000 µM | > 1000 µM | 180 µM | – | – | – | – |
| COc1ccc(CCNC=C2C(=O)Nc3ccccc32)cc1 [(I)7] | > 1000 µM | > 1000 µM | 200 µM | – | – | – | – |
| O=C1Nc2ccccc2C1=NN=Cc1ccc(Cl)cc1 [(I)3, 3-(4-chlorophenylidenehydrazono)-1,3-dihydroindol-2-one] | > 1000 µM | > 1000 µM | 170 µM | – | – | – | – |
| COc1ccc(CC(=O)N/N=C2\C(=O)Nc3ccc(Br)cc32)cc1OC [(I)10, 3-[(3,4-dimethoxyphenyl)acetylhydrazono]-5-bromo-1,3-dihydroindol-2-one] | > 1000 µM | 90 µM | 320 µM | – | – | – | – |
| O=C1Nc2ccccc2C1=NN=Cc1ccc([N+](=O)[O-])cc1 [(I)2, 3-(4-nitrophenylidenehydrazono)-1,3-dihydroindol-2-one] | > 1000 µM | > 1000 µM | 50 µM | – | – | – | – |
| O=C1Nc2ccccc2C1=NNc1ccc([N+](=O)[O-])cc1 [(I)1, 3-(4-nitrophenylhydrazono)-1,3-dihydroindol-2-one] | 200 µM | > 1000 µM | 240 µM | – | – | – | – |
| O=C1Nc2ccc(Br)cc2C1=NN=Cc1ccc(Cl)c(Cl)c1 [(I)6, 3-(3,4-dichlorophenylidenehydrazono)-5-bromo-1,3-dihydroindol-2-one] | > 1000 µM | > 1000 µM | 300 µM | – | – | – | – |
| O=C1Nc2ccccc2C1=NN=Cc1cc(Br)ccc1O [(I)5, 3-(2-hydroxy-5-bromophenylidenehydrazono)-1,3-dihydroindol-2-one] | > 1000 µM | > 1000 µM | 460 µM | – | – | – | – |
| CC(Oc1ccc(Cl)cc1Cl)C(=O)NN=C1C(=O)Nc2ccc(Br)cc21 (centres unmarked) [(I)9, 3-[2-(2,4-dichlorophenoxy)propanoylhydrazono]-5-bromo-1,3-dihydroindol-2-one] | > 1000 µM | 30 µM | 85 µM | – | – | – | – |
| O=C(Nc1cccc([N+](=O)[O-])c1)c1ccc2c(c1)C(=O)OC2=O [(II)1, 5-[N-(3-nitrophenyl)carbamoyl]-1,3-isobenzofurandione] | – | – | – | > 1000 µM | > 1000 µM | 300 µM | – |
| O=C1Nc2ccccc2C1=NN=Cc1cc(Cl)cc(Cl)c1O [(I)4, 3-(2-hydroxy-3,5-dichlorophenylidenehydrazono)-1,3-dihydroindol-2-one] | – | > 1000 µM | > 1000 µM | – | – | – | – |

Next, values leading:

| IC50 (Human HGPRTase; [1]) | IC50 (GPRTase from G. lamblia; [1]) | IC50 (HGXPRTase from T. foetus; [2]) | IC50 (Human HGPRTase; [3]) | IC50 (GPRTase from G. lamblia; [3]) | IC50 (HGXPRTase from T. foetus; [4]) | IC50 (HGXPRTase from T. foetus) | SMILES |
| --- | --- | --- | --- | --- | --- | --- | --- |
| – | – | – | > 1000 µM | 750 µM | 22 µM | – | COc1ccc(Cl)cc1NC(=O)c1ccc2c(c1)C(=O)OC2=O [(II)6, 5-[N-(2-methoxy-5-chlorophenyl)carbamoyl]-1,3-isobenzofurandione] |
| – | – | – | > 1000 µM | > 1000 µM | 425 µM | – | O=C1NC(=O)c2cc([N+](=O)[O-])c(SCc3ccc(Cl)cc3)cc21 [(II)8, 5-[N-(4-chlorophenyl)methylthio]-6-nitrophthalimide] |
| – | – | – | > 1000 µM | > 1000 µM | 140 µM | – | CC(=O)Nc1ccc(NC(=O)c2ccc3c(c2)C(=O)OC3=O)cc1 [(II)2, 5-[N-(4-acetamidophenyl)carbamoyl]-1,3-isobenzofurandione] |
| – | – | – | > 1000 µM | 30 µM | – | 50 µM | O=C(Nc1ccc(Cl)c(Cl)c1)c1ccc2c(c1)C(=O)OC2=O [(II)3, 5-[N-(3,4-dichlorophenyl)carbamoyl]-1,3-isobenzofurandione] |
| – | – | – | > 1000 µM | 200 µM | 80 µM | – | O=C(Nc1ccc(Cl)cc1Cl)c1ccc2c(c1)C(=O)OC2=O [(II)5, 5-[N-(2,4-dichlorophenyl)carbamoyl]-1,3-isobenzofurandione] |
| – | – | – | > 1000 µM | 500 µM | 70 µM | – | COc1ccc([N+](=O)[O-])cc1NC(=O)c1ccc2c(c1)C(=O)OC2=O [(II)4, 5-[N-(2-methoxy-5-nitrophenyl)carbamoyl]-1,3-isobenzofurandione] |
| – | – | – | > 1000 µM | > 1000 µM | 380 µM | – | O=C(Nc1ccc2c(c1)C(=O)OC2)c1ccc(Cl)cc1 [(II)7, 5-[N-(4-chlorophenyl)carbonylamino]-3-isobenzofuranone] |
